Source: PMC8942502 (Journal of Enzyme Inhibition and Medicinal Chemistry, 2022)
Read-outs that look alike come from different tables or passages of the source.

How the values were obtained:
LSD1-CoREST complex [1] = molecular target: T1, LSD1-CoREST complex (Homo sapiens, UniProt O60341); assay: LSD1-CoREST inhibition assay (Amplex UltraRed/HRP, H3K4 peptide); format: biochemical; settings: for IC50: mean ± SD from two experiments in duplicate, 10 min preincubation; for fold drop of anti-LSD1 potency compared with phenyl analogue: para compounds vs 1a, meta compound vs 1b
T1 construct: made in house; host or cells: Escherichia coli

LNCaP cells [2] = assay: MTT cell viability assay; format: cell-based; settings: Homo sapiens
Method: (§1) The tested compounds have been dissolved in DMSO at […] as stock concentration. All compounds have been tested at 10 μM and 50 μM as final concentrations for WB analysis. All compounds have been used at 0.1 μM, 5 μM, 10 μM, 25 μM, 50 μM as final concentration for proliferation assays. ORY-1001 (Selleck Catalog No. S7795) was used as reference compound at the concentration of 25 μM.
(§2) Cell culture LNCaP and U937 were purchased from ATCC (Milan, Italy). LNCaP were grown in Roswell Park Memorial Institute culture medium (RPMI; EuroClone, Milan, Italy), supplemented with 10% heat-inactivated foetal bovine serum (FBS; Sigma-Aldrich, Schnellendorf, Germany), antimicrobials (100 U/mL penicillin, 100 µg/mL streptomycin, 250 ng/mL amphotericin-B), 2 mM L-glutamine (EuroClone, Milan, Italy), and 1% essential amino acids solution (MEM; EuroClone, Milan, Italy). U937 were cultured in Dulbecco’s Modified Eagle Medium (DMEM; EuroClone, Milan, Italy), supplemented with 10% heat-inactivated foetal bovine serum (FBS; Sigma-Aldrich, Schnellendorf, Germany), antimicrobials (100 U/mL penicillin, 100 µg/mL streptomycin, 250 ng/mL amphotericin-B), 2 mM L-glutamine (EuroClone). Cells have grown in standard incubator conditions at 37 °C and 5% CO2.
(§3) Cell viability was determined on LNCaP and U937 cell lines using Thiazolyl Blue Tetrazolium Bromide [3-(4,5-dimethylthiazol-2-yl)-2,5-diphenyltetrazolium bromide] (MTT; Sigma-Aldrich, Schnellendorf, Germany) assay, following manufacturer’s instructions. A total of 5 × 10^3 cells/well were plated in a 96-well plate and treated, in duplicates, and repeated for three times, with the tested compounds at different concentrations 0.1 μM, 5 μM, 10 μM, 25 μM, 50 μM as final concentrations for 48 h, and 72 h. […] Absorbance was read at a wavelength of 570 nm with a TECAN M − 200 reader (Tecan, Männedorf, Switzerland).

U937 cells = assay: MTT cell viability assay; format: cell-based; settings: 0.1-50 μM, 48 and 72 h
Method: as §1, §2, §3

LSD1 = settings: Figure 1; cited from earlier work
MAO-A = settings: Figure 1, cited from earlier work
MAO-B = settings: Figure 1, cited from earlier work
[3] = tested on: MV4-11 acute myeloid leukaemia (AML) cells; design: method as in PMID 32003940; settings: cited from earlier work
NB4 APL cells = tested on: NB4 APL cells; design: method as in PMID 32003940; settings: cited from earlier work
LSD1-CoREST complex [4] = assay: LSD1-CoREST inhibition assay (Amplex UltraRed/HRP, H3K4 peptide); format: biochemical, human; settings: for LSD1 selectivity vs MAO-A: IC50 MAO-A/IC50 LSD1; for LSD1 selectivity vs MAO-B: IC50 MAO-B/IC50 LSD1
hMAO-A = molecular target: T2, hMAO-A (Homo sapiens, UniProt P21397); assay: Anti-MAO assay (Amplex Red, p-tyramine); format: biochemical; settings: for MAO Selectivity Index: IC50 MAO-B/IC50 MAO-A; for IC50: mean ± SD, n = 3
T2 construct: purchased Sigma-Aldrich
T2 sequence (P21397 1-527): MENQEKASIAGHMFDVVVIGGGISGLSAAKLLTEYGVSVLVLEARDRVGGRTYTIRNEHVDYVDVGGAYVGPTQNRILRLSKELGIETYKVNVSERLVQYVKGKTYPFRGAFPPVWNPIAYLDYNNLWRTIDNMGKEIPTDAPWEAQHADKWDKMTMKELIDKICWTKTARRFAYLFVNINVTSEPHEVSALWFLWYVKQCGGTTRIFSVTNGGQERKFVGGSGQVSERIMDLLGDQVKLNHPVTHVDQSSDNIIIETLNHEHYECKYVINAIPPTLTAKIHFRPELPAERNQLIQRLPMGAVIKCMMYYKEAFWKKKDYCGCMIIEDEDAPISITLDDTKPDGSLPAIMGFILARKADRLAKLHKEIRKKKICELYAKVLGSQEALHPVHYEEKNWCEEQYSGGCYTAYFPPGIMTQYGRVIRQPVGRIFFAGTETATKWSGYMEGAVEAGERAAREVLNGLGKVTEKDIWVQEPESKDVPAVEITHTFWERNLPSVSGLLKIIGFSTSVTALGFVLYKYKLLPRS

hMAO-B = molecular target: T3, hMAO-B (Homo sapiens, UniProt P27338); assay: Anti-MAO assay (Amplex Red, p-tyramine); format: biochemical; settings: mean ± SD, n = 3
T3 construct: purchased Sigma-Aldrich
T3 sequence (P27338 1-520): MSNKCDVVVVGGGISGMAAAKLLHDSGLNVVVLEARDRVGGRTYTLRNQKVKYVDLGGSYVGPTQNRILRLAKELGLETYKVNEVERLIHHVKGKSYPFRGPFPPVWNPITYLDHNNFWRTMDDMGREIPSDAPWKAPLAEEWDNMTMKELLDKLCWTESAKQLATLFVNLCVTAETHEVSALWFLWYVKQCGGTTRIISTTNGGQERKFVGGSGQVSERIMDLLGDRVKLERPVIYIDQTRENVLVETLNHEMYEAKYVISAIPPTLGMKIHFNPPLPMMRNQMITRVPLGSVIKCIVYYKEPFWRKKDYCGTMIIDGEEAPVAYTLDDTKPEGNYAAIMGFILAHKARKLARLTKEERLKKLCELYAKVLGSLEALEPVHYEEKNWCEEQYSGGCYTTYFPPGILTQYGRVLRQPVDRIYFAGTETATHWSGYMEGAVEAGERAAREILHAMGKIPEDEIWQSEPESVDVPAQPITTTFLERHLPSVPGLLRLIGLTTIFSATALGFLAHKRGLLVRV

LNCaP cells [5] = tested on: LNCaP cells; design: method as in PMID 30693539; settings: 72 h; cited from earlier work

SMILES	IC50 (LSD1-CoREST complex [1])	IC50 (LNCaP cells [2]; 48 h)	IC50 (LNCaP cells [2]; 72 h)	effect on cell viability in U937 cells (U937 cells)	LSD1 selectivity vs MAO-A (LSD1-CoREST complex [4])	LSD1 selectivity vs MAO-B (LSD1-CoREST complex [4])	MAO Selectivity Index (hMAO-A)	IC50 (hMAO-A)	IC50 (hMAO-B)	melting point	further results
NC1CC1c1ccc(NC(=O)c2ccc(-c3ccccc3)cc2)cc1 (centres unmarked) [1a]	190 ± 30 nM	34100 ± 13200 nM	25400 ± 3200 nM	almost ineffective	–	–	–	–	–	–	IC50 (LSD1): 51 nM; MAO-A inhibition (MAO-A; @ 100 μM): 2%; MAO-B inhibition (MAO-B; @ 100 μM): 8%; cell growth arrest IC50 [3]: low, single-digit micromolar levels; cell growth arrest IC50 (NB4 APL cells): low, single-digit micromolar levels
Cl.NC1CC1c1ccc(NC(=O)c2cccc(-c3ccccc3)c2)cc1 (centres unmarked) [1b, N-(4-(2-Aminocyclopropyl)phenyl)-[1,1′-biphenyl]-3-carboxamide hydrochloride]	149 ± 43 nM	22800 ± 5100 nM	9900 ± 1700 nM	the most potent	0.2	2.2	11.7	28 ± 2 nM	327 ± 28 nM	> 250 °C	fold higher potency against LSD1 of meta regioisomer than para counterpart (LSD1-CoREST complex [1]; meta vs para): 1.3 fold
Cl.NC1CC1c1ccc(NC(=O)c2ccc(-c3ccco3)cc2)cc1 (centres unmarked) [2a, N-(4-(2-Aminocyclopropyl)phenyl)-4-(furan-2-yl)benzamide hydrochloride]	2000 ± 528 nM	–	–	–	–	–	1.7	43 ± 4 nM	73 ± 6 nM	–	–
Cl.NC1CC1c1ccc(NC(=O)c2cccc(-c3ccco3)c2)cc1 (centres unmarked) [2b, N-(4-(2-Aminocyclopropyl)phenyl)-3-(furan-2-yl)benzamide hydrochloride]	110 ± 44 nM	27600 ± 9800 nM	18500 ± 2700 nM	almost ineffective	0.8	8.1	9.5	93 ± 8 nM	888 ± 77 nM	208 to 210 °C	–
Cl.NC1CC1c1ccc(NC(=O)c2ccc(-c3ccoc3)cc2)cc1 (centres unmarked) [3a, N-(4-(2-Aminocyclopropyl)phenyl)-4-(furan-3-yl)benzamide hydrochloride]	2340 ± 225 nM	–	–	–	–	–	0.6	160 ± 14 nM	93 ± 8 nM	–	–
Cl.NC1CC1c1ccc(NC(=O)c2cccc(-c3ccoc3)c2)cc1 (centres unmarked) [3b, N-(4-(2-Aminocyclopropyl)phenyl)-3-(furan-3-yl)benzamide hydrochloride]	221 ± 23 nM	12400 ± 6100 nM	13400 ± 3700 nM	the most potent	5.1	2.3	0.5	1120 ± 97 nM	519 ± 36 nM	235 to 238 °C	–
Cl.NC1CC1c1ccc(NC(=O)c2ccc(-c3cccs3)cc2)cc1 (centres unmarked) [4a, N-(4-(2-Aminocyclopropyl)phenyl)-4-(thiophen-2-yl)benzamide hydrochloride]	1080 ± 359 nM	–	–	–	–	–	1.3	25 ± 2 nM	32 ± 3 nM	> 250 °C	–
Cl.NC1CC1c1ccc(NC(=O)c2cccc(-c3cccs3)c2)cc1 (centres unmarked) [4b, N-(4-(2-Aminocyclopropyl)phenyl)-3-(thiophen-2-yl)benzamide hydrochloride]	15 ± 3 nM	25700 ± 8300 nM	15200 ± 3500 nM	almost ineffective	1.6	24.4	15.3	24 ± 2 nM	366 ± 32 nM	245 to 248 °C	–
Cl.NC1CC1c1ccc(NC(=O)c2ccc(-c3ccsc3)cc2)cc1 (centres unmarked) [5a, N-(4-(2-Aminocyclopropyl)phenyl)-4-(thiophen-3-yl)benzamide hydrochloride]	341 ± 106 nM	26500 ± 4800 nM	17900 ± 1600 nM	the most potent	–	–	1.6	42 ± 4 nM	67 ± 6 nM	–	–
Cl.NC1CC1c1ccc(NC(=O)c2cccc(-c3ccsc3)c2)cc1 (centres unmarked) [5b, N-(4-(2-Aminocyclopropyl)phenyl)-3-(thiophen-3-yl)benzamide hydrochloride]	5 ± 0.8 nM	32100 ± 7800 nM	17200 ± 3500 nM	the most potent	–	–	–	28 ± 2 nM	820 ± 71 nM	> 250 °C	–
Cl.NC1CC1c1ccc(NC(=O)c2ccc(-c3ccncc3)cc2)cc1 (centres unmarked) [6a, N-(4-(2-Aminocyclopropyl)phenyl)-4-(pyridin-4-yl)benzamide hydrochloride]	13900 ± 3060 nM	–	–	–	–	–	5.2	69 ± 6 nM	358 ± 31 nM	> 250 °C	fold drop of anti-LSD1 potency compared with phenyl analogue (LSD1-CoREST complex [1]): 73 fold
Cl.NC1CC1c1ccc(NC(=O)c2cccc(-c3ccncc3)c2)cc1 (centres unmarked) [6b, N-(4-(2-Aminocyclopropyl)phenyl)-3-(pyridin-4-yl)benzamide hydrochloride]	572 ± 157 nM	–	–	–	0.3	18.2	66	159 ± 14 nM	10400 ± 300 nM	> 250 °C	fold drop of anti-LSD1 potency compared with phenyl analogue (LSD1-CoREST complex [1]): 4 fold
NC1CC1c1ccc(NC(=O)c2ccccc2)cc1 (centres unmarked) [MC2584, reference compound]	–	–	–	–	–	–	–	–	–	–	IC50 (LSD1): 19 nM; IC50 (MAO-A): 31 nM; IC50 (MAO-B): 8980 nM
C#CCN(C)CCCOc1ccc(Cl)cc1Cl [clorgyline]	–	–	–	–	–	–	–	–	–	–	IC50 (LNCaP cells [5]): 63700 ± 8200 nM
